We go through 1 molecule from BindingDB's records for patent US12054475 (Kayothera, 2024).

Test [1] has as its target T1, Retinal dehydrogenase 2 (UniProt Q62148).
T1 sequence (Q62148 whole entry): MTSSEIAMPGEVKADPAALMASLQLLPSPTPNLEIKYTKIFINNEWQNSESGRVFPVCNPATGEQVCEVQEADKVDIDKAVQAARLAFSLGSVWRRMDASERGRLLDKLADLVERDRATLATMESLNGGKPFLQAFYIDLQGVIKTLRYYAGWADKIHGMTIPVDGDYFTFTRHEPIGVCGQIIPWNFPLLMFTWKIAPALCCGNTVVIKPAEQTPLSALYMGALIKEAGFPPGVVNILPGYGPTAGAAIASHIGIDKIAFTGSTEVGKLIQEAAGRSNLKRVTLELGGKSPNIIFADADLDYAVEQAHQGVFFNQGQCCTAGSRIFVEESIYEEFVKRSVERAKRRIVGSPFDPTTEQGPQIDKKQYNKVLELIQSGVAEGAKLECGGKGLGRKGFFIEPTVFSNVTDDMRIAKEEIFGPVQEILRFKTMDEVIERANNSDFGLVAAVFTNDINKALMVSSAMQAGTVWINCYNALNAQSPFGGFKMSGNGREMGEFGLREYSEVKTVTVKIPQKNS
The experiment in a line: Aldh1a2 Enzyme Inhibition Assay.

Test [2] concerns the target T2, Retinal dehydrogenase 2 (Homo sapiens, UniProt O94788).
T2 sequence (O94788 whole entry): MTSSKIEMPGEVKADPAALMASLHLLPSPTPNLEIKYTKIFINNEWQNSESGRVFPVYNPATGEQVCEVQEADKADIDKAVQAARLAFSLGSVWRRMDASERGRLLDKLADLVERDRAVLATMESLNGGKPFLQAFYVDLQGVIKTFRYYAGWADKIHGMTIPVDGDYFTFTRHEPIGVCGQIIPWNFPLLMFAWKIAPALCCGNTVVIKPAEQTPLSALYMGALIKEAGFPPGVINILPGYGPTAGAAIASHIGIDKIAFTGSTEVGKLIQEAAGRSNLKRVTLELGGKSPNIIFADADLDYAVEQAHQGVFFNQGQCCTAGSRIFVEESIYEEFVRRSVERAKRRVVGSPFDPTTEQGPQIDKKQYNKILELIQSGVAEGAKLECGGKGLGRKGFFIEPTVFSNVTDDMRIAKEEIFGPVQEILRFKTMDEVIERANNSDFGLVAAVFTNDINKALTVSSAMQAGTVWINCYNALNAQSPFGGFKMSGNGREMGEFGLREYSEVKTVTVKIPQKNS
The experiment in a line: Aldh1a2 Enzyme Inhibition Assay.

Each structure is given as a SMILES string.

On to `CCC1COCCN1C(=O)Nc1cc(C)c2c(c1)CCC(=O)N2` (racemic) [US12054475, Compound 193], for which the IC50 at Retinal dehydrogenase 2 [1] and on Retinal dehydrogenase 2 [2] was above 10 µM throughout.

As usually defined, the IC50 is the concentration that inhibits the measured activity by half. A higher IC50 goes with lower potency.
